Test results as given in ChEMBL document CHEMBL1153579, “Knowledge based identification of MAO-B selective inhibitors using pharmacophore and structure based virtual screening models” (Eur J Med Chem, 2009).

Molecular target: T1, Amine oxidase [flavin-containing] B (Homo sapiens, UniProt P27338)
T1 sequence (P27338 whole entry): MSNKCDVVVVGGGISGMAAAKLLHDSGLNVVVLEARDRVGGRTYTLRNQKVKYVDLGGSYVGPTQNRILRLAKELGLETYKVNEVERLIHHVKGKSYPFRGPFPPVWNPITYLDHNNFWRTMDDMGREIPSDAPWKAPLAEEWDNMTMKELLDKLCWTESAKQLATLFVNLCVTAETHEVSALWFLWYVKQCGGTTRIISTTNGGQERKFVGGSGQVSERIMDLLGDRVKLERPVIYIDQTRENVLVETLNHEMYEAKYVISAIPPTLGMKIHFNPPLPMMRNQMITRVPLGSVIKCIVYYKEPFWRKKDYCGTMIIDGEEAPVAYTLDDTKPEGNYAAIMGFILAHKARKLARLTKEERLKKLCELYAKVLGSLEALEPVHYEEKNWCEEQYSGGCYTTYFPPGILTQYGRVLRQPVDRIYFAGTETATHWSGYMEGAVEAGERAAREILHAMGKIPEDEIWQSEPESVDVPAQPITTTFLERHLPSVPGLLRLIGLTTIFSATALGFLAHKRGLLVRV
Test: Inhibition of MAOB

| IC50 [µM] | SMILES |
| --- | --- |
| 40 | COc1ccc(C2=NN(C(C)=O)C(c3ccccc3C)C2)c(OC)c1 (configuration not stated) |
| 65 | C=CNC(=S)N1N=C(c2ccc(OC)cc2)CC1c1cccs1 (configuration not stated) |
| 17 | CC(=O)NC[C@H]1CN(c2ccc(N3CCOCC3)c(F)c2)C(=O)O1 [LINEZOLID] |
| 6.7 | CCOC(=O)/C=C/c1ccc(O)c(OC)c1 [ETHYL FERULATE] |
| 92 | COc1ccc(C2=NN(C(=S)Nc3ccccc3)C(c3cccs3)C2)cc1 (configuration not stated) |
| 22 | CCNC(=S)N1N=C(c2ccc(OC)cc2)CC1c1cccs1 (configuration not stated) |
| 13 | Cc1ccc(C2(F)CC2N)cc1 (configuration not stated) |
| 25 | COc1ccc(C2CC(c3ccccc3)=NN2C(C)=O)cc1OC (configuration not stated) |
| 8.9 | COc1cc(O)ccc1O |
| 240 | C=CCNC(=S)N1N=C(c2ccc(C)cc2)CC1c1cccs1 (configuration not stated) |
| 19 | NC1CC1(F)c1ccccc1 (configuration not stated) |

| SMILES | IC50 [µM] |
| --- | --- |
| Oc1ccc(/C=C\c2cc(O)cc(O)c2)cc1 [CIS-RESVERATROL] | 61 |
